Reference: a melting point compilation (Tetko et al.; mined from patent text by program, amines drawn as free bases though some values may be those of a salt)

Point of comparison: `O=C(CO)Nc1ccccc1-c1nnc(C(c2ccc(Cl)cc2)c2c(Cl)cc(-n3ncc(=O)[nH]c3=O)cc2Cl)o1` (configuration not stated), melting point 235 °C. Against it:
- NC(=O)/C=C1\CCc2c(Cl)cc(F)cc21 — lower, 182 to 184 °C
- CCOc1cc2c(cc1OC)OC(C)(C)CC2=O — lower, 86 to 87 °C
- Cc1nc2ccccc2n(-c2ccc(CC(=O)O)cc2)c1=O — lower, 179 to 182 °C
- N#Cc1ccc(CN2CCN(c3cc(-c4ccccc4)c4ccc(=O)ccn34)CC2)cc1 — lower, 196 °C
- COc1ccc(-c2[nH]nc3c2C(=O)c2c(NC(=O)NCc4ccc(N)cc4)cccc2-3)cc1 — higher, > 300 °C
- COc1ccc(CCNc2nc(Cl)ccc2N)cc1OC — lower, 90 to 91 °C
- CCCn1nc(C)c2c1C1=NC(C)CN1C(C)=N2 (configuration not stated) — lower, 85 to 90 °C
- CC(C)(C)c1cc(C=O)n(Cc2ccc(C(F)(F)F)cc2Cl)n1 — lower, 147 to 149 °C
- COC1CN(c2ccc(N3C[C@H](CN=[N+]=[N-])OC3=O)cc2F)C1 — lower, 111 to 112 °C
- Cc1nc(N)nc(N)c1-c1cc(Cl)cc(Cl)c1Cl — higher, 236 to 238 °C
- O=c1[nH]c2cccc3c2n1CCC(NCCO)C3O (configuration not stated) — lower, 220 °C
- CC(Oc1ccc(-n2cnc3cc(C(F)(F)F)ccc32)cc1)C(=O)O (configuration not stated) — lower, 181 to 182 °C
- COc1ccc(-c2cnc3cc4cnn(C[C@@H]5COC(C)(C)O5)c4cc3n2)cc1F — lower, 145 to 151 °C
- CN(C)CCn1c2c(c3ccccc31)CCSCCC2 — lower, 62 to 64 °C
- CC(C)CCc1c(C(C)C)nc(C(C)C)c(CO)c1-c1ccc(F)cc1 — lower, 43 to 45 °C
- CCCc1cc(C)c(OCCO)c(C(Nc2ccc(C(=N)N)cc2)C(=O)O)c1 (racemic) — lower, 230 °C
- CC1(C)CC(SCc2c(C(F)(F)F)nn(C(F)F)c2Cl)=NO1 — lower, 41 to 42 °C
- Nc1ncnc2c1ncn2OC[C@@H](CO)OCP(=O)(O)O — lower, 200 to 205 °C
- CCCC(=O)Cc1ccc(C(=O)Nc2ccc3cc(CN4CCN(C)CC4)cnc3c2C)cc1 — lower, 177 °C
- CC(=O)Oc1ccc(CC(=O)Nc2ncc(-c3ccc(OC(C)=O)cc3)nc2Cc2ccccc2)cc1 — lower, 225 to 227 °C
- Cc1nc(Cl)c2c(n1)CN=C(c1ccccc1)c1cc(Cl)ccc1-2 — lower, 190 to 192 °C
- Cc1c(SCCCl)ccnc1CSc1nc2ccccc2[nH]1 — lower, 178 to 180 °C
- CCC(C(=O)C(C)C(O)C(C)CCc1c(Cl)cc(C)c(O)c1C(=O)O)C1OC(CC)(C2CCC(O)(CC)C(C)O2)CC1C (configuration not stated) — lower, 183 to 185 °C
- C[C@@H](C(=O)c1ccccc1)[C@H](NC(=O)C(F)(F)F)C(=O)OC(C)(C)C — lower, 127 to 128 °C
- CCOC(=O)Nc1cc2c3ccccc3n(CC)c2cn1 — lower, 217 to 218 °C
- Cc1cc(C)c(COc2cccc3c2C(=O)c2c(Cl)ccc4c2c-3nn4CCNCCO)c(C)c1 — lower, 147 to 158 °C
- CS(=O)(=O)NC(=O)c1cccc([N+](=O)[O-])c1 — lower, 175 to 178 °C
- CC(O)CN1CCC(c2noc3cc(F)ccc23)CC1 (configuration not stated) — lower, 45 to 47 °C
- O=C(NCC12CC3CC(CC(C3)C1)C2)c1c(Cl)ccc2nc(N3CCC(n4cn[nH]c4=O)CC3)ccc12 — higher, 294 to 295 °C
- CCN(C(=O)c1cc(C(C)(C)C)c(OC(=O)c2cc(C(C)(C)C)c(O)c(C(C)(C)C)c2)c(C(C)(C)C)c1)c1ccc(C)cc1 — lower, 214 to 216 °C
- CCCCCC(=O)OCC(CO)CCn1cnc2c(=O)[nH]c(N)nc21 (configuration not stated) — lower, 179 to 181 °C
- COc1cc(C(=O)NCC2NC(C)Cc3ccccc32)cc(OC)c1OC (configuration not stated) — lower, 162 to 164 °C
- Cc1cccc([N+](=O)[O-])c1CNc1cccn2c(C)c(C)nc12 — lower, 160 to 162 °C
- Cc1ccc(N=Nc2ccc(-c3ccc(-c4ccc(N=Nc5ccc(C)cn5)cc4OC(C)C)o3)c(OC(C)C)c2)nc1 — lower, 185 to 194 °C
- COC(=O)c1c(C(F)(F)F)nc(C(F)(F)F)c(C(=O)OC)c1[Si](C)(C)C — lower, 29 to 31 °C
- CN1C(c2ccc(NS(C)(=O)=O)cc2)NCc2ccccc2C1c1ccccc1 (configuration not stated) — lower, 124 to 126 °C
- O=C(O)c1cc(SCc2ccccc2)c(-c2ccccc2)c([N+](=O)[O-])c1 — lower, 188 to 189 °C
- COC1=C(OC)C(=O)C2=C(CCC(CCOc3cc(OC)c(OC)c(OC)c3)CC2)C1=O — lower, 91 to 93 °C
- Cc1ccc(C)c2c1CN(NC(=O)OC(C)(C)C)C2 — lower, 148 to 151 °C
- Cc1ccc2c(c1)-n1cc(C(=O)O)nc1CO2 — higher, 281 to 285 °C
- O=C(O)CCn1c(=O)n2n(c1=O)C(C(=O)O)C=CC2 (configuration not stated) — lower, 172 to 175 °C
- CSc1cc(CF)nc(N)n1 — lower, 95 to 97 °C
- COc1cc(F)c(C(O)C#N)cc1OC (configuration not stated) — lower, 112 to 114 °C
- Cn1c(-c2ccccc2)c(CCC(=O)O)c2ccccc2c1=O — lower, 138 to 140 °C
- COc1ccc(C(=O)c2cc(-c3ccc(S(C)(=O)=O)cc3)c(N3CCOCC3)s2)cc1 — lower, 154 °C
- CC1=C(c2ccc(C(=O)N3Cc4cccn4Cc4ccccc43)cc2C)C(C)CCC1 (configuration not stated) — lower, 133 to 135 °C
- CC1(C)C(=O)Nc2cc3[nH]c(-c4ccnnc4)nc3cc21 — higher, > 360 °C
- O=c1c2cnc(Cl)cc2[nH]c2ccnn12 — higher, > 300 °C
- CCCNC(=O)C(O)C1(O)CCC2C3CCC4=CC(=O)C=CC4(C)C3C(O)CC21C (configuration not stated) — higher, 251 to 253 °C
- O=C(O)COc1cccc2c1Cc1sc(SCCC(c3ccccc3)c3ccccc3)nc1-2 — lower, 100 to 103 °C
- COC(Nc1ccccc1)(OC)C1(Br)C=CN=C(C(=O)c2ccccc2)C1 (configuration not stated) — lower, 189 to 190 °C
- Cc1noc(C)c1Cn1cc(NC(=O)c2ccccn2)cn1 — lower, 135 to 137 °C
- N#Cc1ccc(OCCCOc2cccc(-c3cc4cc(C#N)ccc4o3)c2)cc1 — lower, 157 to 158 °C
- C(=Cc1ccc2cc(C=Cc3ccccc3)ccc2c1)c1ccccc1 — higher, 291 °C
- CC(C)n1nc(-c2c(OCC(N)=O)nc(N)nc2-c2ccccc2)ccc1=O — higher, 257 to 261 °C
- COCc1cn(-c2cccc(C(F)(F)F)c2)nc(C(=O)OC)c1=O — lower, 138 to 140 °C
- CCCC(Cl)(Cl)C(NC(=O)c1ccc(Cl)cc1)NC(=C[N+](=O)[O-])Nc1cccnc1 (configuration not stated) — lower, 185 to 186 °C
- CCOC(=O)CS(=O)(=O)c1ccc(C=C(C)c2ccc3c(c2)C(C)(C)CCC3(C)C)cc1 — lower, 117 to 118 °C
- COC(=O)/C=C(C)/C=C/C(F)=C(C)/C=C/c1c(C)sc(C)c1C — lower, 126 to 128 °C
- O=C(O)CC1Cc2ccccc2C1 — lower, 85 to 88 °C
- CCCN(CCC)C(=O)Cc1c(-c2ccc(C)cc2)nn2cccnc12 — lower, 110 to 111 °C
- CN1C(=O)[C@H](NC(=O)Nc2cccc(CC(=O)O)c2)N=C(c2ccccc2)c2ccccc21 — lower, 167 to 170 °C
- CCc1nc2c(C)cc(C)nc2n1-c1ccc(CCNC(=O)NS(=O)(=O)c2ccncc2)cc1 — lower, 228 to 229 °C
- CCCc1ccc(-c2ncccc2S(=O)(=O)Nc2ncc(C)nc2OC)cc1 — lower, 70 to 72 °C
- CN1Cc2ccccc2C(=O)c2c1nc1ccc(Br)cc1c2Cl — lower, 153 to 155 °C
- COc1ccccc1NC(=O)Nc1ccc(C2CCN(C(=O)Nc3ccc(OCC(O)CO)cc3Cl)CC2)cc1 (configuration not stated) — lower, 158 to 161 °C
- COC(=O)CCC(OC(=O)Oc1ccccc1)C(=O)c1ccc(Cl)cc1 (configuration not stated) — lower, 97 to 98 °C
- CN(C)S(=O)(=O)NC(=O)N1CC(c2ccccc2)C(c2ccc(Cl)cc2)=N1 (configuration not stated) — lower, 210 to 212 °C
- COc1cccc2c1nc(C(F)F)n2-c1nc(N2CCOCC2)c2cnn(C3CCN(S(=O)(=O)CCl)CC3)c2n1 — higher, 250 to 253 °C
- OCc1c(Cl)cc(Cl)cc1Br — lower, 111 to 112 °C
- O=C(O)c1ccc2[nH]c3ccccc3c2c1 — higher, 271 to 272 °C
- COC(C(N)=S)c1ccccn1 (configuration not stated) — lower, 157 to 159 °C
- Nc1nc2ccccc2c2c1ncn2CCOCC#Cc1nccs1 — lower, 157 to 159 °C
- O=C(O)CCCOc1ccc(C2C3CC4CC(C3)CC2C4)cc1 (configuration not stated) — lower, 163 to 165 °C
- CCCCn1c(=O)c2c(ncn2S(=O)(=O)Cc2ccccc2)n(CCCC)c1=O — lower, 117 to 118 °C
- O=C(c1ccc(Nc2ccnc3cc(C(F)(F)F)ccc23)cc1)N1CCN(S(=O)(=O)c2ccc(Cl)cc2)CC1 — not separable, 234 to 236 °C
- Cc1sc(N)c(C(=O)c2ccccc2)c1C — lower, 140 to 141 °C
- Cc1ccc([N+](=O)[O-])cc1S(=O)(=O)n1c(Br)nc(Br)c1C — lower, 187 to 189 °C
- CCCc1c(CSc2nnc(SCCCC(=O)O)s2)ccc(C(C)=O)c1O — lower, 75 to 78 °C
- CC(=O)N1CCc2ccc(C(=O)CCCCl)cc2CC1 — lower, 103 to 106 °C
- CC(C)(C)c1ccc(N2C[C@@H](COS(C)(=O)=O)CC2=O)cc1 — lower, 108 to 109 °C
- COc1ccccc1N1CCN(CCCOc2ccc(-c3cn4cccnc4n3)cc2)CC1 — lower, 156 to 158 °C
- Cc1nc(N(C)C)ccc1N1CCCn2c1nc1c(Cl)ccc(C(OC(F)F)C(F)(F)F)c12 (configuration not stated) — not separable, 233 to 235 °C
- O=C(C1CCN(S(=O)(=O)c2ccc3cc(Br)ccc3c2)CC1)N1CCN(c2ccncc2)CC1 — lower, 229 to 230 °C
- COc1ccc2c(c1)CN(C(=O)N(C)C)N=C2Cc1c(Cl)cncc1Cl — lower, 160 to 162 °C
- Cc1c2c(c(C)c3c1NC(C)C3)OC(C)(C)C2 (configuration not stated) — lower, 87 to 88 °C
- Cc1ccccc1C(=O)Nc1ccc(-n2nc(C3CC3)cc2C2CC2)cc1 — lower, 128 to 130 °C
- CCCOc1nc(-c2ccco2)c2ncn(Cc3ccc(OC)cc3)c2n1 — lower, 119 °C
- Cc1ccccc1SN(C(=O)NC(=O)c1ccccc1Cl)c1ccc(OC(F)(F)F)cc1 — lower, 79 to 80 °C
- CCN(CC)c1ccc2c(c1)OC(=O)N(c1ccccc1)C2(c1ccc(N(C)C)cc1)c1ccc(N(C)C)cc1 — lower, 206 to 207 °C
- Cc1ccccc1NC1(C#N)CCN(C(=O)c2cc(C(F)(F)F)cc(C(F)(F)F)c2)CC1 — lower, 141 to 142 °C
- CCCCCCCCCCCCCCCCCCOc1ccc(C(=O)O)o1 — lower, 117 to 118 °C
- COC(=O)C(C)Oc1ccc(Oc2ccc(C(F)(F)F)cc2)cc1 (configuration not stated) — lower, 142 °C
- CC(C)(C)OC(=O)NCCNC(=O)Nc1ccccc1C(=O)NC1CCN(C(c2ccccc2)c2ccccc2)CC1 — lower, 226 to 228 °C
- N=C(NO)c1ccc(S(N)(=O)=O)s1 — lower, 189 °C
- CC(=O)NC1CCCn2c1c(C)c1ccccc12 (configuration not stated) — lower, 158 to 160 °C
